# Marks after values point to notes of the source that are not given here.
# Experiments:
# [1] = test system: superficial vaginal cells; assay: Vaginal cytology, percentage of superficial cells, Example 3; format: in vivo, postmenopausal women
# Description: (§1) Efficacy was measured with composite scores of vaginal symptoms (dryness, soreness, and irritation) and vaginal health (secretions, epithelial integrity, surface thickness, and pH). Vaginal and urethral cytology analyses were also performed, and the vaginal maturation value was determined. Safety assessments included endometrial biopsies.
# (§2) All vaginal tablets were identical in appearance. Patients inserted 1 tablet daily for 14 days. Thereafter, patients inserted 1 tablet twice per week (Sunday and Thursday) for the remainder of the trial. Patients were to insert the tablets at the same time each day (preferably at bedtime). Patients were evaluated for efficacy and safety at Week - 4 (screening), Week 0 (baseline), and Weeks 2, 7, and 12.
# (§3) Vaginal and urethral cell samples were harvested and analyzed by independent cytologists to determine the percentages of parabasal, intermediate, and superficial cells. Maturation values were calculated according to the following equation: maturation value = 1.0 × [superficial cells, %] + 0.5 × [intermediate cells, %] [formula] Endometrial biopsies were performed at the end of the study in patients with intact uteri. The number of patients with abnormal biopsies was compared between treatment groups.
# endometrium = assay: Endometrial biopsy at end of study, Example 3; format: in vivo, postmenopausal women; conditions: Week 12, N = 32
# Description: as §1, §3
# [2] = test system: postmenopausal women with atrophic vaginitis; assay: Patients with vaginal pH below 5.5, Example 3; format: in vivo
# Description: Efficacy was measured with composite scores of vaginal symptoms (dryness, soreness, and irritation) and vaginal health (secretions, epithelial integrity, surface thickness, and pH). Vaginal and urethral cytology analyses were also performed, and the vaginal maturation value was determined. Safety assessments included endometrial biopsies. […] All vaginal tablets were identical in appearance. Patients inserted 1 tablet daily for 14 days. Thereafter, patients inserted 1 tablet twice per week (Sunday and Thursday) for the remainder of the trial. Patients were to insert the tablets at the same time each day (preferably at bedtime). Patients were evaluated for efficacy and safety at Week - 4 (screening), Week 0 (baseline), and Weeks 2, 7, and 12. Investigators used a severity scale of none, mild, moderate, or severe to assess vaginal health characteristics (secretions, epithelial integrity, surface thickness, color, and pH). Severity categories were assigned ascending scores from 0 (none) to 3 (severe) for analysis. To avoid multiple endpoint issues, composite scores were defined. A composite score for vaginal health was defined as the average of the individual vaginal health characteristic scores. The composite score and the change from baseline for the composite score were examined at each time point. Differences within and between treatment groups were analyzed using an analysis of variance (ANOVA). […] Efficacy was measured with composite scores of vaginal symptoms (dryness, soreness, and irritation) and vaginal health (secretions, epithelial integrity, surface thickness, and pH). Vaginal and urethral cytology analyses were also performed, and the vaginal maturation value was determined. Safety assessments included endometrial biopsies. […] All vaginal tablets were identical in appearance. Patients inserted 1 tablet daily for 14 days. Thereafter, patients inserted 1 tablet twice per week (Sunday and Thursday) for the remainder of the trial. Patients were to insert the tablets at the same time each day (preferably at bedtime). Patients were evaluated for efficacy and safety at Week - 4 (screening), Week 0 (baseline), and Weeks 2, 7, and 12. Investigators used a severity scale of none, mild, moderate, or severe to assess vaginal health characteristics (secretions, epithelial integrity, surface thickness, color, and pH). Severity categories were assigned ascending scores from 0 (none) to 3 (severe) for analysis. To avoid multiple endpoint issues, composite scores were defined. A composite score for vaginal health was defined as the average of the individual vaginal health characteristic scores. The composite score and the change from baseline for the composite score were examined at each time point. Differences within and between treatment groups were analyzed using an analysis of variance (ANOVA).
# vaginal mucosa = assay: Vaginal maturation value, Example 3; format: in vivo, postmenopausal women
# Description: as §1, §2, §3
# [3] = each treatment group (25 or 10 µg E2), Week 0
structure (smiles),measurement,setting,value
"C[C@]12CC[C@@H]3c4ccc(O)cc4CC[C@H]3[C@@H]1CC[C@@H]2O [E2, 17β-estradiol]","percentage of superficial vaginal cells, Mean","[1]; 10 µg E2, Week 0",3.1%
same,"percentage of superficial vaginal cells, Mean","[1]; 10 µg E2, Week 2",28.3%
same,"percentage of superficial vaginal cells, mean Change from baseline","[1]; 10 µg E2, Week 2",25.0^a %
same,"percentage of superficial vaginal cells, mean Change from baseline","[1]; 10 µg E2, Week 7",17.1%
same,"percentage of superficial vaginal cells, mean Change from baseline","[1]; 10 µg E2, Week 12",16.9^d %
same,"percentage of superficial vaginal cells, Mean","[1]; 25 µg E2, Week 0",4.0%
same,"percentage of superficial vaginal cells, Mean","[1]; 25 µg E2, Week 2",34.2%
same,"percentage of superficial vaginal cells, mean Change from baseline","[1]; 25 µg E2, Week 2",30.7^a %
same,"percentage of superficial vaginal cells, Mean","[1]; 25 µg E2, Week 7",28.2%
same,"percentage of superficial vaginal cells, mean Change from baseline","[1]; 25 µg E2, Week 7","23.9^b,c %"
same,"percentage of superficial vaginal cells, mean Change from baseline","[1]; 25 µg E2, Week 12",15.4%
same,"Endometrial Biopsy Result Abnormal, percentage of patients",endometrium; 10 µg E2,0.0%
same,"Endometrial Biopsy Result Normal, number of patients",endometrium; 10 µg E2,25
same,"Endometrial Biopsy Result Normal, percentage of patients",endometrium; 10 µg E2,78.1%
same,"Endometrial Biopsy Result Other, number of patients",endometrium; 10 µg E2,7
same,"Endometrial Biopsy Result Other, percentage of patients",endometrium; 10 µg E2,21.9%
same,"Endometrial Biopsy Result Abnormal, number of patients","endometrium; 10 µg E2, hyperplasia or carcinoma",0
same,"Endometrial Biopsy Result Abnormal, percentage of patients",endometrium; 25 µg E2,3.1%
same,"Endometrial Biopsy Result Normal, number of patients",endometrium; 25 µg E2,28
same,"Endometrial Biopsy Result Normal, percentage of patients",endometrium; 25 µg E2,87.5%
same,"Endometrial Biopsy Result Other, number of patients",endometrium; 25 µg E2,3
same,"Endometrial Biopsy Result Other, percentage of patients",endometrium; 25 µg E2,9.4%
same,"Patients With Vaginal pH Values Below 5.5, (%)","[2]; 10 µg E2, Week 0",(30.3) %
same,"Patients With Vaginal pH Values Below 5.5, n/N","[2]; 10 µg E2, Week 0",27/89
same,"Patients With Vaginal pH Values Below 5.5, (%)","[2]; 10 µg E2, Week 2",(79.8)^b %
same,"Patients With Vaginal pH Values Below 5.5, n/N","[2]; 10 µg E2, Week 2",67/84
same,"Patients With Vaginal pH Values Below 5.5, (%)","[2]; 10 µg E2, Week 7",(71.3)^c %
same,"Patients With Vaginal pH Values Below 5.5, n/N","[2]; 10 µg E2, Week 7",57/80
same,"Patients With Vaginal pH Values Below 5.5, (%)","[2]; 10 µg E2, Week 12",(76.1)^b %
same,"Patients With Vaginal pH Values Below 5.5, n/N","[2]; 10 µg E2, Week 12",54/71
same,"Patients With Vaginal pH Values Below 5.5, (%)","[2]; 25 µg E2, Week 0",(34.4) %
same,"Patients With Vaginal pH Values Below 5.5, n/N","[2]; 25 µg E2, Week 0",31/90
same,"Patients With Vaginal pH Values Below 5.5, (%)","[2]; 25 µg E2, Week 2",(73.6)^a %
same,"Patients With Vaginal pH Values Below 5.5, n/N","[2]; 25 µg E2, Week 2",64/87
same,"Patients With Vaginal pH Values Below 5.5, n/N","[2]; 25 µg E2, Week 7",71/83
same,"Patients With Vaginal pH Values Below 5.5, (%)","[2]; 25 µg E2, Week 12",(79.7)^b %
same,"Patients With Vaginal pH Values Below 5.5, n/N","[2]; 25 µg E2, Week 12",63/79
same,percentage of patients with vaginal pH values below 5.5,[2]; [3],approximately 35%
same,maturation values,"vaginal mucosa; active treatment groups (25 or 10 µg E2), Week 12",approximately 60%
same,maturation values,vaginal mucosa; [3],approximately 45%

# Source: patent publication EP1343508B1, “USE OF AN OESTROGEN IN THE MANUFACTURE OF A COMPOSITION CONTAINING OESTROGEN FOR THE TREATMENT OF ATROPHIC VAGINITIS” (Novo Nordisk Femcare AG, priority 2000, dated 2002)
